Source: patent publication US11446287B2, “Compounds and methods for EP300 or CBP modulation and indications therefor” (Opna Immuno-Oncology SA, priority 2019, dated 2022)

The compounds below were run against T1, Recombinant human BRD4 containing dual bromodomains (BRD4-BD12 (1-477)) (Homo sapiens, UniProt O60885) (assay: BRD4 Alphascreen binding assay).
T1 construct: Recombinant human BRD4 containing dual bromodomains (BRD4-BD12 (1-477)); made in house; host or cells: E. coli BL21-CodonPlus (DE3), modified pET vector
Summary of the method: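 His-tagged human BRD4 tandem bromodomains (1-477, E. coli) incubated 1 h at room temperature with biotinylated tetra-acetylated H4 (1-21) peptide and compound in HEPES pH 7.5 buffer with 2 mM DTT. AlphaScreen signal read 30 min after adding beads (7.5 μg/ml); IC50 from four-parameter fit after normalization to controls.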

SMILES	IC50
Cc1noc(C)c1-c1cnc2c(c1)c(-c1cccc(C(=O)O)c1)cn2C(C1CC1)C1CC1 [P-0058, 3-(1-(dicyclopropylmethyl)-5-(3,5-dimethylisoxazol-4-yl)-1H-pyrrolo[2,3-b]pyridin-3-yl)benzoic acid]	8 to 1000 µM
Cc1noc(C)c1-c1cnc2c(CC3CCC3)cn(-c3ccc(C(=O)O)cc3OC(F)(F)F)c2c1 [P-0066, 4-(3-(cyclobutylmethyl)-6-(3,5-dimethylisoxazol-4-yl)-1H-pyrrolo[3,2-b]pyridin-1-yl)-3-(trifluoromethoxy)benzoic acid]	8 to 1000 µM
Cc1noc(C)c1-c1cnc2c(c1)c(-c1cccc(C(=O)O)c1)cn2Cc1cccc(C(F)(F)F)c1 [P-0063, 3-(5-(3,5-dimethylisoxazol-4-yl)-1-(3-(trifluoromethyl)benzyl)-1H-pyrrolo[2,3-b]pyridin-3-yl)benzoic acid]	8 to 1000 µM
Cc1noc(C)c1-c1cnc2c(c1)c(-c1c(F)cc(C(=O)O)cc1F)cn2C(C)c1ccccn1 (stereo not shown) [P-0094, 4-(5-(3,5-dimethylisoxazol-4-yl)-1-(1-(pyridin-2-yl)ethyl)-1H-pyrrolo[2,3-b]pyridin-3-yl)-3,5-difluorobenzoic acid]	8 to 1000 µM
Cc1noc(C)c1-c1cnc2c(CC3CC3)cn(-c3ccnc(C(=O)O)c3)c2c1 [P-0065, 4-(3-(cyclopropylmethyl)-6-(3,5-dimethylisoxazol-4-yl)-1H-pyrrolo[3,2-b]pyridin-1-yl)picolinic acid]	1 to 8 µM
Cc1noc(C)c1-c1cnc2c(C(=O)c3cccc(Cl)c3)cn(-c3ccnc(C(=O)O)c3)c2c1 [P-0088, 4-(3-(3-chlorobenzoyl)-6-(3,5-dimethylisoxazol-4-yl)-1H-pyrrolo[3,2-b]pyridin-1-yl)picolinic acid]	1 to 8 µM
Cc1noc(C)c1-c1cnc2c(c1)c(-c1ccc(C(=O)O)cc1OC(F)(F)F)cn2[C@@H](C)c1ccccn1 [P-0070, (S)-4-(5-(3,5-dimethylisoxazol-4-yl)-1-(1-(pyridin-2-yl)ethyl)-1H-pyrrolo[2,3-b]pyridin-3-yl)-3-(trifluoromethoxy)benzoic acid]	8 to 1000 µM
Cc1noc(C)c1-c1cnc2c(c1)c(-c1cccc(C(=O)O)c1)cn2Cc1cccc(Cl)c1 [P-0061, 3-(1-(3-chlorobenzyl)-5-(3,5-dimethylisoxazol-4-yl)-1H-pyrrolo[2,3-b]pyridin-3-yl)benzoic acid]	8 to 1000 µM
Cc1noc(C)c1-c1cnc2c(c1)c(-c1cccc(S(=O)(=O)NC3CC3)c1)cn2Cc1ccccc1 [P-0083, 3-(1-benzyl-5-(3,5-dimethylisoxazol-4-yl)-1H-pyrrolo[2,3-b]pyridin-3-yl)-N-cyclopropylbenzenesulfonamide]	1 to 8 µM
Cc1noc(C)c1-c1cnc2c(c1)c(C#CC(=O)O)cn2Cc1ccccc1 [P-0069, 3-(1-benzyl-5-(3,5-dimethylisoxazol-4-yl)-1H-pyrrolo[2,3-b]pyridin-3-yl)propiolic acid]	8 to 1000 µM
Cc1noc(C)c1-c1cnc2c(CC3CCC3)cn(-c3c(C(=O)O)ccc(Br)c3F)c2c1 [P-0086, 4-bromo-2-(3-(cyclobutylmethyl)-6-(3,5-dimethylisoxazol-4-yl)-1H-pyrrolo[3,2-b]pyridin-1-yl)-3-fluorobenzoic acid]	1 to 8 µM
CNS(=O)(=O)c1cccc(-c2cn(Cc3ccccc3)c3ncc(-c4c(C)noc4C)cc23)c1 [P-0082, 3-(1-benzyl-5-(3,5-dimethylisoxazol-4-yl)-1H-pyrrolo[2,3-b]pyridin-3-yl)-N-methylbenzenesulfonamide]	1 to 8 µM
COC(=O)c1ccc(-c2cn(S(=O)(=O)c3ccc(C)cc3)c3ncc(-c4c(C)noc4C)cc23)cc1 [P-0005, methyl 4-(5-(3,5-dimethylisoxazol-4-yl)-1-tosyl-1H-pyrrolo[2,3-b]pyridin-3-yl)benzoate]	8 to 1000 µM
Cc1noc(C)c1-c1cnc2c(c1)c(-c1cccc(C(=O)O)c1)cn2Cc1cccc(OC(F)(F)F)c1 [P-0059, 3-(5-(3,5-dimethylisoxazol-4-yl)-1-(3-(trifluoromethoxy)benzyl)-1H-pyrrolo[2,3-b]pyridin-3-yl)benzoic acid]	8 to 1000 µM
Cc1noc(C)c1-c1cnc2c(Cc3ccccc3Cl)cn(-c3ccnc(C(=O)O)c3)c2c1 [P-0091, 4-(3-(2-chlorobenzyl)-6-(3,5-dimethylisoxazol-4-yl)-1H-pyrrolo[3,2-b]pyridin-1-yl)picolinic acid]	1 to 8 µM
Cc1noc(C)c1-c1cnc2c(c1)c(-c1ccnc(C(=O)O)c1)cn2S(=O)(=O)c1ccccc1 [P-0055, 4-(5-(3,5-dimethylisoxazol-4-yl)-1-(phenylsulfonyl)-1H-pyrrolo[2,3-b]pyridin-3-yl)picolinic acid]	0.0001 to 1 µM
Cc1noc(C)c1-c1cnc2c(CC3CCC3)cn(-c3c(Cl)cc(C(=O)O)cc3Cl)c2c1 [P-0074, 3,5-dichloro-4-(3-(cyclobutylmethyl)-6-(3,5-dimethylisoxazol-4-yl)-1H-pyrrolo[3,2-b]pyridin-1-yl)benzoic acid]	8 to 1000 µM
Cc1noc(C)c1-c1cnc2c(c1)c(-c1ccccc1)cn2C(c1ccccn1)C1CCCC1 (stereo not shown) [P-0003, 4-(1-(cyclopentyl(pyridin-2-yl)methyl)-3-phenyl-1H-pyrrolo[2,3-b]pyridin-5-yl)-3,5-dimethylisoxazole]	8 to 1000 µM
Cc1noc(C)c1-c1cnc2c(c1)c(-c1cccc(C(=O)O)c1)cn2Cc1cccc(F)c1 [P-0060, 3-(5-(3,5-dimethylisoxazol-4-yl)-1-(3-fluorobenzyl)-1H-pyrrolo[2,3-b]pyridin-3-yl)benzoic acid]	1 to 8 µM
Cc1noc(C)c1-c1cnc2c(c1)c(-c1ccc(C(=O)O)cc1)cn2C(c1ccccn1)C1CCCC1 (stereo not shown) [P-0002, 4-(1-(cyclopentyl(pyridin-2-yl)methyl)-5-(3,5-dimethylisoxazol-4-yl)-1H-pyrrolo[2,3-b]pyridin-3-yl)benzoic acid]	0.0001 to 1 µM
COc1cccc(Cn2cc(-c3ccnc(C(=O)O)c3)c3cc(-c4c(C)noc4C)cnc32)c1 [P-0057, 4-(5-(3,5-dimethylisoxazol-4-yl)-1-(3-methoxybenzyl)-1H-pyrrolo[2,3-b]pyridin-3-yl)picolinic acid]	1 to 8 µM
Cc1cc(C(=O)O)cnc1-n1cc(CC2CCC2)c2ncc(-c3c(C)noc3C)cc21 [P-0075, 6-(3-(cyclobutylmethyl)-6-(3,5-dimethylisoxazol-4-yl)-1H-pyrrolo[3,2-b]pyridin-1-yl)-5-methylnicotinic acid]	8 to 1000 µM
